Several values for one entry are separate records, joined by “and”; a condition that tells them apart may be missing. Identical values can stand only once. Entries after “also recorded” stand apart in the source; their conditions may differ. Ends that are not written are not given here.

Series [1] concerns CLP-induced polymicrobial sepsis. Put plainly: Cecal ligation and puncture (CLP) polymicrobial sepsis model. The format is in vivo, BALB/c mice. The protocol:
Polymicrobial sepsis was induced using the CLP method described by [Wendy E. Walker, 2021; Benjamim et al. 2000], with minor modifications and the anesthetic used. Initially, the Mice were derived of food for 12 h before the CLP procedure and then anesthetized by intraperitoneal injection of ketamine (80-100 mg/kg BW) and xylazine in a dose (5-10 mg/kg) (for 20 g mice ketamine of 0.2 ml and xylazine of 0.1 ml). according to [Machado et al. 2012]. under sterile conditions a midline abdominal incision was made and then, a laparotomy of 10 mm/1 cm was performed, where the abdomen of mice was routinely disinfected and cut open in the middle to expose the abdominal cavity, and the cecum was mobilized, was then ligated below the cecal valve at the distal end of the cecum, ¾ was ligated with a sterile No. 4 thread, and punctured (CLP) with a 20-gauge needle in 2 places at the center of the distal end of the occlusal cecum and squeezed gently to extrude a small amount of intestinal contents through the perforation site to induce sepsis. The cecum was located but not ligated or punctured in the control animals. The cecum was placed back into the peritoneal cavity, and the abdominal incision was then closed in two layers with absorbable ethilon suture 5.0, and the animals were resuscitated with 0.1-0.2 mL of normal saline by subcutaneous injection. The sham group of mice had the identical operation as the treated and disease control groups, which included opening the peritoneum and exposing the bowel but without ligation or needle perforation of the cecum. Betadine/tramadol was used to relieve the pain of mice after operation. During the surgery, the […] was applied to the eyes to prevent dryness of the eyes. All the animals were returned to their cages, where they had free access to food and water. After 2 h of CLP, the treatment groups were administered with test peptides (0.6 & 1.2 mg/kg) and the standard drug through the subcutaneous & Intravenous route. To reduce variability between studies, the CLP method was always carried out by the same investigators. [Zingarelli B et al., Libert C et al., Hellman J et al., 2019].
Mice were subjected to CLP surgery and were discarded if they died during the procedure. In all the animal experiments, the test peptide IS 111 was administered by injections respectively; According to the clinical dosage regimen, IS 111 was repeatedly administered at 2 h after CLP surgery and recovery of animals from anesthesia. The mice were divided into the following treatment groups at random: BALB/c mice are used for Intravenous (IV) route of administration. In each group the half of the animals were killed after 4 and 18 hours, [Hubbard, W. J 2005; Rittirsch D 2009]. In another half of the animals, IS 111 at two doses 0.6 & 1.2 mg/kg were injected IV daily for 5 days following CLP. 0.9% Normal saline was administered in the sham group. The survival of mice was monitored for up to 18 h and the other half of the animals are continued for the survival monitored up to 7 days.
In the survival study, survival rates were determined by setting the day 0 from 0 to 18 h after surgery and continuing observation until day 7. In one set of animals/group, survival was monitored every 4 h up to 18 h and in another half subset of animals was followed for 5 days for survival assessment every 12 h after sepsis induction to verify mortality rates. The time of death was recorded as accurately as possible.
The physical activity of the mice was recorded independently by two independent observers who were blinded to treatment before sampling as previously described. In this study predetermined grading system was used with a scale of 1 (healthy) to 5 (agony). This scoring system is based on grading physical activity and food intake (table 16) using spontaneous activity of mice, reactivity to external stimuli, and spontaneous food intake to differentiate between grades 1 and 5. […]

A further series is described as follows: in vitro. It counts as cell-based, murine. Particulars: mouse. The protocol: Cell viability of synthetic peptides on the growth of RAW264.7 cells was measured using the methyl thiazolyl tetrazolium (MTT) assay after 48 h. Briefly, exponentially growing macrophages RAW264.7 cells were mechanically scraped, plated at a density of 7×10^3 cells in 100 μl were seeded into each well of a 96-well plate then incubated for 12 h at 37° C. under 5% CO2, and then the cells are treated with test peptides: IS 111 ([…]) or dexamethasone ([…]) cells were incubated at 37° C. in the presence of 5% CO2 for 42 h. After incubation, the morphology of cells was examined under a microscope. Following incubation, MTT was added to the cells (20 μL at 5 mg/mL MTT dissolved in 1×PBS) and incubated for 4 hours in the presence of 5% CO2 at 37° C. Formazan crystals were dissolved by the addition of 100 μL of 100% DMSO per well. Plates were then gently swirled for 5 min at room temperature to dissolve the precipitate. Absorbance was monitored at 575 nm using a microplate reader. Maximum cytotoxicity (100%) was determined by cells incubated with 1% Triton X-100; PBS was used as a negative control. Cells without treatment were considered as control. The average absorbance for each sample group was used to evaluate cell viability.
Optical density (O.D.) was calculated as the difference between the absorbance at the reference wavelength and that at the test wavelength. The relative cell viability was determined by the amount of MTT converted to the insoluble formazan salt. The data were expressed as the mean percentage of viable cells when compared with untreated cells (control). The half maximal growth inhibitory concentration (IC50) value was calculated from the line equation of the dose-dependent curve of each compound. The results were compared with the cytotoxic activity of dexamethasone, a known anti-inflammatory drug. […] Percentages of cell viability and LC50 of cells were calculated: Percent cell viability was calculated as (O.D. of drug-treated sample/control O.D.)×100. The data were expressed as percent cell viability compared with control (dimethyl sulfoxide/NS). The experiment was carried out in four samples of each concentration.
The percentages of cell viability and LC50 of cells were calculated by using the formula below.
Where Absorbance control is the DMSO 0.1%-treated cell absorbance, and Absorbance sample is the test sample-treated cell absorbance. LC50 values were derived from dose-response curves, and data were expressed as the mean of three independent experiments. Statistical analyses involved Student's t-test and one-way ANOVA.
The test peptide IS 111 cytotoxic effects on RAW 264.7 mouse […] were determined by MTT assay. […] Cell viability was measured by MTT assay based on the conversion of yellow tetrazolium salt to form a purple formazan product. The viability of the RAW 264.7 cells can be seen on table 21.

As for “FAKKFAK [IS 111, Phe-Ala-Lys-Lys-Phe-Ala-Lys]”, the Activity index in series [1] (0.6 mg/Kg, 18 h after CLP, scale 1 (very active) to 5 (lethargic)) came to 2.8 ± 0.5 Grade points. For the same substance, the Lung histology result in series [1] (0.6 mg/kg, 18 h) is “Mild lung oedema, haemorrhage, and inflammatory cell infiltration”. Further, the “Serum IL-10” value in series [1] (24-48 h after CLP, treatment 2 h after CLP) was “significant decrease”. For the same substance, the “Bacterial growth in the peritoneum / bacterial counts” value in series [1] (18 h after CLP) is “inhibited; also recorded: ↓bacterial counts; ↓liver & kidney”. Also, in series [1] (18 h after CLP surgery), the Body temperature entry is reported as “in range of normal values”. Further, the “IL-10 levels in serum” value in series [1] (18 h after CLP, IV) is “increased slightly and 6 and IL-12, &↑IL-10 in serum;”. In series [1] (7 days), this substance showed a Survival percentage of 80%. Besides, the “Myeloperoxidase levels in the lung” value in series [1] (IS 111-treated mice) is “significantly decreased”. For the same substance, the Reduction of mortality in series [1] (vs diseased control animals (normal saline)) was found to be 80%. Moreover, the Mice still surviving in series [1] (~60 h post-CLP (last death in disease control group)) is recorded as 80%. Besides, in “in vitro”, the viability at 48 h, 1.5625 μg/mL is 84.5%; the viability at 48 h, 3.125 μg/mL was determined as 91.5%; the viability at 48 h, 6.25 μg/mL was determined as 90.2%; the viability at 48 h, 12.5 μg/mL was found to be 99.7%. In “in vitro”, this substance returned a viability at 48 h, 25 μg/mL of 96.4%; a viability at 48 h, 50 μg/mL of 95%; a viability at 48 h, 100 μg/mL of 91.4%.
